{"source": "patent US8445706B2", "about": "“Unnatural amino acids capable of covalently modifying protein phosphatases and their use as general and specific inhibitors and probes” (Board of Trustees of Northern Illinois University, priority 2008, dated 2013)", "origin": "cited, not measured here", "details": "neutral or basic aqueous solutions; cited from earlier work"}
{"molecule": "O=P(O)(O)C(Br)c1ccccc1", "note": "(stereo not drawn) [α-bromobenzylphosphonate]", "values": [{"measurement": "solvolysis", "value": "undergoes solvolysis"}]}
